pIC50: −log10 of the molar value. “Also recorded” adds a separate entry of the source. Numbered stars: 1 amine (or outer) side, 2 acyl side, 3 side chain; on linkers, the order of the positions; unused ones are H or OH. Bridge positions count the residues as written; N and C are the ends. Square brackets hold non-standard residues; d marks the D form. Peptide text beside a SMILES is read from it. I, II: the chains in the order shown. Actinocin(9to1) = Cc1c2oc3c(C)ccc(C(=O)[*:1])c3nc-2c(C(=O)[*:2])c(N)c1=O; NMeV = CN[C@H](C(=O)O)C(C)C; Sar = CNCC(=O)O
Key:
Arg2 = Arg2 protein expression in HAECs (Western blot); assay type: cell-based, human; conditions: for TSA (1 μmol/L) effect on Arg2 expression in pretreated cells: pretreatment with actinomycin D or cycloheximide (10 μg/mL)
Method: (§1) After 48 hrs of HAEC cells transfection, cells were lysed in ice cold RIPA lysis buffer consisting of 20 mM Tris-HCl at pH 7.5, 150 mM NaCl, 1 mM EDTA, 1 mM EGTA, 1% NP40, 1% sodium deoxycholate, 1 mM Na3VO4, 2.5 mM sodium pyrophosphate, 1 mM 3-glycerophosphate, 1 μg/mL leupeptin, and a 1:1000 diluted protease inhibitor cocktail (Sigma). For immunoprecipitation studies, whole cell lysate lysates were centrifuged at 14,000×g and supernatants were precleared by incubation with Protein A/G-agarose beads for 2 h at 4° C. with rocking. Agarose beads were then pelleted by centrifugation at 1,000×g. FLAG-Arg2 in precleared lysates were immunoprecipitated by incubation overnight at 4° C. with rocking following addition of anti-FLAG antibody (10 μl). Immune complexes were eluted in 2×SDS sample buffer by boiling for 5 minutes before loading into SDS-PAGE. Western blotting analysis was performed by transferring the SDS gel onto a PVDF membrane and visualized using secondary antibodies conjugated to alkaline phosphatases.

[1] = tested on: arginase activity in HAECs; test: Arginase activity assay (urea production) in HAEC lysates; assay type: cell-based, human; conditions: 30 minutes; nicotinamide 5 mmol/L, TSA 1 μmol/L
Method: HAEC were lysed using RIPA buffer (50 mM of Tris.HCl, pH 7.5, 0.1 mM EDTA, 0.1% Triton X-100, and protease inhibitor), and centrifuged for 30 min at 14,000 g at 4° C. 50 μL (50-100 μg) of supernatant was added to 75 μl of 10 mM MnCl2 made in Tris-HCl (50 mM, pH 7.5) and heat activated by incubating at 55-60° C. for 10 min. 50 μL of L-Arginine that was prepared in 300 mM Tris-HCL, pH 9.7 were then added to the activated cell lysates to achieve final concentrations of 150 mM and incubated at 37° C. for 3 hrs with shaking. The reaction was stopped by adding 400 μL of an acid solution (H2SO4: H3PO4: H20=1:3:7). For colorimetric determination of urea, α-isonitrosopropiophenone (25 μL, 9% in ethanol) was added and further heated at 100° C. for 45 min. Samples were allowed to cool at room temperature in the dark for 10 min and urea concentration was determined by measuring absorbance at 550 nm using a spectrophotometer.

SIRT = conditions: cited from earlier work
Arg2 mRNA = Arg2 mRNA in HAECs (RT-PCR, real-time PCR); assay type: cell-based, human
Method: Total RNA was extracted from segments of mice aortas and HAEC using Trizol and PureLink (Invitrogen). RNA was then reverse transcribed with oligo dT primers to obtain cDNA and quantitative real time PCR (Applied Biosystems) was performed using SYBR Green Supermix mix (Applied Biosystems) whereas semiquantitative RTPCR was performed using conventional Biorad PCR machine and the following primer sets: Real Time PCR data are expressed as “fold change”, which is calculated as 2-ΔΔCt.

HDAC = conditions: cited from earlier work
eNOS = eNOS expression in HAECs (immunoblot); assay type: cell-based, human; conditions: 1 μmol/L, 18 hours
Method: as §1

HDAC2 = conditions: low-dose; cited from earlier work

NC(=O)c1cccnc1 [Nicotinamide]
Arg2 protein levels (Arg2; nicotinamide 5 mmol/L): no effect
HAEC arginase activity, short-term [1]: activating effect
pIC50 (SIRT): > 4.30
Arg2 mRNA expression (Arg2 mRNA; nicotinamide 0.1 or 0.2 mmol/L, 18 hours): No changes
Arg2 mRNA levels (Arg2 mRNA; nicotinamide (5 mmol/L) as printed): no effect

COc1ccc(Cn2ccc3ccc(C(=O)NO)cc32)cc1 [PCI-34051]
endothelial Arg2 expression, class-specific HDAC inhibitors (Arg2): no substantial effects; also recorded: slight increase

O=C(CCCCCCC(=O)Nc1ccccc1)NO [SAHA, Suberoylanilide Hydroxamic Acid]
HDAC classes blocked (HDAC): 10 nM; block Class I and Class II HDACs
eNOS expression (eNOS): negligible effect

O=C(CCCCCN1C(=O)c2cccc3cccc(c23)C1=O)NO [Scriptaid]
Arg2 expression, broad-spectrum HDAC inhibitors (Arg2; 1 μmol/L, 18 hours): upregulated
eNOS expression (eNOS): negligible effect

Cc1c2oc3c(C)ccc(C(=O)N[C@@H]4C(=O)N[C@H](C(C)C)C(=O)N5CCC[C@H]5C(=O)N(C)CC(=O)N(C)[C@@H](C(C)C)C(=O)O[C@@H]4C)c3nc-2c(C(=O)N[C@@H]2C(=O)N[C@H](C(C)C)C(=O)N3CCC[C@H]3C(=O)N(C)CC(=O)N(C)[C@@H](C(C)C)C(=O)O[C@@H]2C)c(N)c1=O [actinomycin D] (I: T[dV]P[Sar][NMeV] / II: T[dV]P[Sar][NMeV]; ester I:1-I:C, II:1-II:C; linker I:N-II:N via Actinocin(9to1))
TSA (1 μmol/L) effect on Arg2 expression in pretreated cells (Arg2): failed to increase
OxLDL-induced rise in Arg2 mRNA levels (Arg2 mRNA; with Actinomycin D): ablated

C[C@@H]1C[C@@H]([C@H](O)CC2CC(=O)NC(=O)C2)C(=O)[C@@H](C)C1 [cycloheximide]
TSA (1 μmol/L) effect on Arg2 expression in pretreated cells (Arg2): failed to increase
OxLDL-induced peak in Arg2 protein levels (Arg2; with cycloheximide): ablated

Cn1c(=O)c2[nH]cnc2n(C)c1=O [theophylline, 1,3-dimethylxanthine]
HDAC2 activity and expression in alveolar macrophages (HDAC2): increases

Source: patent publication US20160199463A1, “HDAC2 DEFENDS VASCULAR ENDOTHELIUM FROM INJURY” (The Johns Hopkins University, priority 2014, published 2016)
